According to patent US9777008B2, “PRMT5 inhibitors and uses thereof” (Epizyme, Inc., priority 2012, dated 2017):

Target: PRMT5/MEP50 (Homo sapiens (Human), UniProt O14744)
Experiment: PRMT5 Biochemical Assay (PRMT5/MEP50 enzyme assay on peptide substrate, 3H-SAM Flashplate)
How it was run: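 FLAG-PRMT5/His-MEP50 from Sf9 cells, 4 nM, with 40 nM biotinylated H4(1-15) peptide and 75 nM 3H-SAM in 20 mM Bicine pH 7.6, 1% DMSO; compound preincubated 30 min at 25 °C. Stopped with 600 uM cold SAM; 3H-peptide captured on streptavidin Flashplate, counted; % inhibition versus DMSO and 100 uM SAH controls, IC50 by 3- or 4-parameter fit.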

Sequence of PRMT5/MEP50 (O14744 other isoform, or with tags, fused parts or gaps): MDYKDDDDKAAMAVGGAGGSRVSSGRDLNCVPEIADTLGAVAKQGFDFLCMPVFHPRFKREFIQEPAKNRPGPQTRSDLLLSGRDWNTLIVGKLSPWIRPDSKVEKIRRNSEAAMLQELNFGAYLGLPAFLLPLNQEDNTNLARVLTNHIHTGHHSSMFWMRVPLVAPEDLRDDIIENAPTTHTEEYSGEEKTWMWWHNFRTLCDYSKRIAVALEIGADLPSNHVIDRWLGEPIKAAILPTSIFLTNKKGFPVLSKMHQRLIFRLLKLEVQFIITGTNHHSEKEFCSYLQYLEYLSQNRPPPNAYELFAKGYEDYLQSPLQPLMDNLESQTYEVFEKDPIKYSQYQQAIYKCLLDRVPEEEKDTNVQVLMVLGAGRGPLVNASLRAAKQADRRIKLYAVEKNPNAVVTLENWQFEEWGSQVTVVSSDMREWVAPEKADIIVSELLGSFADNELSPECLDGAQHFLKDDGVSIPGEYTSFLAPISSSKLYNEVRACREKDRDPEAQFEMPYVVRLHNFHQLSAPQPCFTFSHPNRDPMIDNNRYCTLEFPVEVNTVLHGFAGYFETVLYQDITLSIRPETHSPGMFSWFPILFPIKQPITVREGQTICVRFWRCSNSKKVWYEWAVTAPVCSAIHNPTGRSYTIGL
Sequence of PRMT5/MEP50 (Q9BQA1 other isoform, or with tags, fused parts or gaps partner): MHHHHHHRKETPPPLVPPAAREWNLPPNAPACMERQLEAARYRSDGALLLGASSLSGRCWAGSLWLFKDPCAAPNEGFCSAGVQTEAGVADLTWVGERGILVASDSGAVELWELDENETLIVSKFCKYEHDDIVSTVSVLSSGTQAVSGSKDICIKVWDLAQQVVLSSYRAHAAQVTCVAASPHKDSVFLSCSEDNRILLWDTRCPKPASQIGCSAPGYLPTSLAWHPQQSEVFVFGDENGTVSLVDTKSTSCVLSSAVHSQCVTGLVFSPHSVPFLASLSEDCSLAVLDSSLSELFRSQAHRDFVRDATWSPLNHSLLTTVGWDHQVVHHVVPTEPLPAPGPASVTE

Compound `OC(COc1cccc(-c2ccc3cn[nH]c3c2)c1)CN1CCc2ccccc2C1` (centres unmarked) [Compound 58, 1-(3-(1H-indazol-6-yl)phenoxy)-3-(3,4-dihydroisoquinolin-2(1H)-yl)propan-2-ol] has an IC50 of 101 to 1000 nM.
In the case of “N-(3-(3-(3,4-dihydroisoquinolin-2(1H)-yl)-2-hydroxypropoxy)phenyl)pyrimidine-5-carboxamide [Compound 145]”, the IC50 is reported as 101 to 1000 nM.
